Literature values, collected in patent publication US4868157A, “Dipeptidyl 2-amino-1,2-dideoxy-D-glucose derivatives as host resistance enhancers in AIDS-immunocompromised hosts and methods of use” (priority 1987, dated 1989).

Columns and labels:
[1] = tested on: Mycobacterium aviumintracellulare
AIDS-related virus = conditions: for symptoms and/or immune function in patients: ARC or AIDS patients, clinical trials; for viral replication in patients: humans / AIDS patients
[2] = biological target: HIV reverse transcriptase (Human immunodeficiency virus type 1 group M subtype B, UniProt P04585)
[3] = tested on: AIDS-related Kaposi's sarcoma; conditions: AIDS-related Kaposi's sarcoma cases

CO[C@H]1/C=C/O[C@@]2(C)Oc3c(C)c(O)c4c(c3C2=O)C2=NC3(CCN(CC(C)C)CC3)NC2=C(NC(=O)/C(C)=C\C=C\[C@H](C)[C@H](O)[C@@H](C)[C@@H](O)[C@@H](C)[C@H](OC(C)=O)[C@@H]1C)C4=O [Ansamycin, rifabutin]
efficacy in AIDS patients with opportunistic Mycobacterium aviumintracellulare infection [1]: some efficacy

CC(C)(N1CC1C#N)N1CC1C(N)=O (stereo not drawn) [Azimexon]
symptoms and/or immune function in patients (AIDS-related virus): improvements in symptoms and immune function in patients with ARC but not AIDS

CC(C)(S)[C@@H](N)C(=O)O [D-Penicillamine, 3-mercapto-D-valine]
T cell levels (AIDS-related virus; human, in vivo): temporarily depressed T cell levels | viral replication in patients (AIDS-related virus): Inhibits HIV reproduction in humans | effect on the virus (AIDS-related virus; trials at George Washington University Medical Center, 13 AIDS patients with perpetually swollen glands): suppressed the virus

O=C(O)P(=O)(O)O [Foscarnet, trisodium phosphonoformate]
inhibition of HIV reverse transcriptase [2]: Inhibits HIV reverse transcriptase activity in vitro at levels pharmacologically acceptable in vivo

CC(=O)Nc1ccc(C(=O)O)cc1.CC(=O)Nc1ccc(C(=O)O)cc1.CC(=O)Nc1ccc(C(=O)O)cc1.CC(O)CN(C)C.CC(O)CN(C)C.CC(O)CN(C)C.O=c1[nH]cnc2c1ncn2[C@@H]1O[C@H](CO)[C@@H](O)[C@H]1O [Inosine pranobex, p-Acetamidobenzoic acid salt of (1-dimethylamino-2-propanol:inosinate complex 3:3:1 molar ratio)]
symptoms and/or immune function in patients (AIDS-related virus): improve immune function

NC(=O)c1ncn([C@@H]2O[C@H](CO)[C@@H](O)[C@H]2O)n1 [Ribavirin, 1-β-D-ribofuranosyl-1,2,4-triazole-3-carboxamide]
symptoms and/or immune function in patients (AIDS-related virus): improved immune function | viral replication in patients (AIDS-related virus): inhibited viral replication | tolerability (24-week trial in 373 ARC patients, at 12 weeks): well tolerated | safety profile (human, in vivo): acceptable

Cc1ccc(C(=O)Nc2ccc(S(=O)(=O)O)c3cc(S(=O)(=O)O)cc(S(=O)(=O)O)c23)cc1NC(=O)c1cccc(NC(=O)Nc2cccc(C(=O)Nc3cc(C(=O)Nc4ccc(S(=O)(=O)O)c5cc(S(=O)(=O)O)cc(S(=O)(=O)O)c45)ccc3C)c2)c1 [Suramin]
therapeutic benefit / clinical improvement in AIDS patients (AIDS-related virus): little or no evidence of clinical improvement or immunologic recovery

ammonium 21-tungsto-9-antimoniate [HPA-23]
therapeutic benefit / clinical improvement in AIDS patients (AIDS-related virus): no therapeutic benefit has been documented

α-Interferon
tumor regression [3]: induced tumor regression in some AIDS-related Kaposi's sarcoma cases | growth of HIV in vitro (HIV): Checks the growth of HIV in vitro
